Laboratory results: PubChem BioAssay AID1259407 (Chemical Carcinogenesis Research Information System (CCRIS), 2018)
Active and inactive are the calls of the source. How the calls were made is not given here.

System: CCRIS mutagenicity, Ames/micronucleus/aberration tests
Test: CCRIS mutagenicity studies
[1] = Test System: AMES SALMONELLA TYPHIMURIUM, Strain/Indicator: TA98, Metabolic Activation: NONE, Method: STANDARD PLATE
[2] = Test System: AMES SALMONELLA TYPHIMURIUM, Strain/Indicator: TA98, Metabolic Activation: RAT, LIVER, S-9, AROCLOR 1254, Method: STANDARD PLATE
[3] = Test System: AMES SALMONELLA TYPHIMURIUM, Strain/Indicator: TA100, Metabolic Activation: NONE, Method: STANDARD PLATE
[4] = Test System: AMES SALMONELLA TYPHIMURIUM, Strain/Indicator: TA100, Metabolic Activation: RAT, LIVER, S-9, AROCLOR 1254, Method: STANDARD PLATE
[5] = Test System: AMES SALMONELLA TYPHIMURIUM, Strain/Indicator: TA98, Metabolic Activation: NONE, Method: PREINCUBATION
[6] = Test System: AMES SALMONELLA TYPHIMURIUM, Strain/Indicator: TA100, Metabolic Activation: NONE, Method: PREINCUBATION
[7] = Test System: AMES SALMONELLA TYPHIMURIUM, Strain/Indicator: TA1535, Metabolic Activation: NONE, Method: PREINCUBATION
[8] = Test System: AMES SALMONELLA TYPHIMURIUM, Strain/Indicator: TA1537, Metabolic Activation: NONE, Method: PREINCUBATION

CC(C)CCC[C@@H](C)[C@H]1CC[C@H]2[C@@H]3C[C@@H](O)[C@@]4(O)C[C@@H](O)CC[C@]4(C)[C@H]3CC[C@]12C was tested, and the mutagenic call (Test System: AMES SALMONELLA TYPHIMURIUM, Strain/Indicator: TA97, Metabolic Activation: NONE, Method: STANDARD PLATE) was “active; positive”, the mutagenic call (Test System: AMES SALMONELLA TYPHIMURIUM, Strain/Indicator: TA97, Metabolic Activation: RAT, LIVER, S-9, AROCLOR 1254, Method: STANDARD PLATE) was “inactive; negative” and the mutagenic call [1] was “active; positive”. For the same compound, the mutagenic call [2] was “inactive; negative”, the mutagenic call [3] was “active; positive” and the mutagenic call [4] was “inactive; negative”. The mutagenic call (Test System: AMES SALMONELLA TYPHIMURIUM, Strain/Indicator: TA102, Metabolic Activation: NONE, Method: STANDARD PLATE) was “active; positive”, the mutagenic call (Test System: AMES SALMONELLA TYPHIMURIUM, Strain/Indicator: TA102, Metabolic Activation: RAT, LIVER, S-9, AROCLOR 1254, Method: STANDARD PLATE) was “inactive; negative” and the mutagenic call (Test System: AMES SALMONELLA TYPHIMURIUM, Strain/Indicator: TA1535, Metabolic Activation: NONE, Method: STANDARD PLATE) was “active; positive”. The mutagenic call (Test System: AMES SALMONELLA TYPHIMURIUM, Strain/Indicator: TA1535, Metabolic Activation: RAT, LIVER, S-9, AROCLOR 1254, Method: STANDARD PLATE) was “active; positive”, the mutagenic call (Test System: CHINESE HAMSTER V-79, Strain/Indicator: V-79/8-AZAGUANINE, Metabolic Activation: NONE) was “active; positive” and the mutagenic call (Test System: CHINESE HAMSTER V-79, Strain/Indicator: V-79/OUABAIN, Metabolic Activation: NONE) was “inactive; negative”. For the same compound, the mutagenic call (Test System: IN VITRO CHROMOSOMAL ABERRATIONS, Strain/Indicator: CHINESE HAMSTER OVARY EPITHELIAL (CHO-K1) CELLS, Metabolic Activation: NONE) was “active; positive (structural changes)” and the mutagenic call (Test System: IN VITRO CHROMOSOMAL ABERRATIONS, Strain/Indicator: CHINESE HAMSTER OVARY EPITHELIAL (CHO-K1) CELLS, Metabolic Activation: RAT, LIVER, S-9, AROCLOR 1254) was “active; positive (structural changes); lower response in presence of s-9”.

With Cn1c2ccccc2c2cc([N+](=O)[O-])ccc21 the mutagenic call [1] was “active; positive”, the mutagenic call (Test System: AMES SALMONELLA TYPHIMURIUM, Strain/Indicator: TA98, Metabolic Activation: RAT LIVER S-9, AROCLOR 1254, Method: STANDARD PLATE) was “active; positive” and the mutagenic call [3] was “active; positive”. The mutagenic call (Test System: AMES SALMONELLA TYPHIMURIUM, Strain/Indicator: TA100, Metabolic Activation: RAT LIVER S-9, AROCLOR 1254, Method: STANDARD PLATE) was “active; positive”.

CC(=O)N[C@@H](C(=O)N(CC(=O)O)N=O)C(C)C was tested, and the mutagenic call [3] was “active; positive”, the mutagenic call [4] was “active; positive” and the mutagenic call (Test System: CHO/HGPRT, Strain/Indicator: CHO-K1-BH4, Metabolic Activation: NONE) was “active; positive”.

CCCCCCCCCCCCCCCC(=O)O was tested, and the mutagenic call [5] was “inactive; negative”, the mutagenic call (Test System: AMES SALMONELLA TYPHIMURIUM, Strain/Indicator: TA98, Metabolic Activation: RAT LIVER S-9, PHENOBARBITAL AND BETA-NAPHTHOFLAVONE, Method: PREINCUBATION) was “inactive; negative” and the mutagenic call [6] was “inactive; negative”. The mutagenic call (Test System: AMES SALMONELLA TYPHIMURIUM, Strain/Indicator: TA100, Metabolic Activation: RAT LIVER S-9, PHENOBARBITAL AND BETA-NAPHTHOFLAVONE, Method: PREINCUBATION) was “inactive; negative”, the mutagenic call [7] was “inactive; negative” and the mutagenic call (Test System: AMES SALMONELLA TYPHIMURIUM, Strain/Indicator: TA1535, Metabolic Activation: RAT LIVER S-9, PHENOBARBITAL AND BETA-NAPHTHOFLAVONE, Method: PREINCUBATION) was “inactive; negative”. For the same compound, the mutagenic call [8] was “inactive; negative”, the mutagenic call (Test System: AMES SALMONELLA TYPHIMURIUM, Strain/Indicator: TA1537, Metabolic Activation: RAT LIVER S-9, PHENOBARBITAL AND BETA-NAPHTHOFLAVONE, Method: PREINCUBATION) was “inactive; negative” and the mutagenic call (Test System: E.COLI, Strain/Indicator: WP2UVRA/PKM101, Metabolic Activation: NONE, Method: PREINCUBATION) was “inactive; negative”. For the same compound, the mutagenic call (Test System: E.COLI, Strain/Indicator: WP2UVRA/PKM101, Metabolic Activation: RAT LIVER S-9, PHENOBARBITAL AND BETA-NAPHTHOFLAVONE, Method: PREINCUBATION) was “inactive; negative”.

In the case of Nc1ccc2cc(S(=O)(=O)O)cc(O)c2c1N=Nc1ccc([N+](=O)[O-])cc1S(=O)(=O)O, the mutagenic call [1] is reported as “inactive; negative”, the mutagenic call (Test System: AMES SALMONELLA TYPHIMURIUM, Strain/Indicator: TA98, Metabolic Activation: RAT, LIVER, S-9, PHENOBARBITAL, Method: STANDARD PLATE) is reported as “inactive; negative” and the mutagenic call [3] is reported as “inactive; negative”. The mutagenic call (Test System: AMES SALMONELLA TYPHIMURIUM, Strain/Indicator: TA100, Metabolic Activation: RAT, LIVER, S-9, PHENOBARBITAL, Method: STANDARD PLATE) was “inactive; negative”.

For O=C(O)[C@H](O)[C@@H](O)[C@H](O)[C@H](O)CO, the mutagenic call (Test System: AMES SALMONELLA TYPHIMURIUM, Strain/Indicator: TA97, Metabolic Activation: NONE, Method: PREINCUBATION) was “inactive; negative”, the mutagenic call (Test System: AMES SALMONELLA TYPHIMURIUM, Strain/Indicator: TA97, Metabolic Activation: RAT, LIVER, S-9, AROCLOR 1254, Method: PREINCUBATION) was “inactive; negative” and the mutagenic call (Test System: AMES SALMONELLA TYPHIMURIUM, Strain/Indicator: TA102, Metabolic Activation: NONE, Method: PREINCUBATION) was “inactive; negative”. For the same compound, the mutagenic call (Test System: AMES SALMONELLA TYPHIMURIUM, Strain/Indicator: TA102, Metabolic Activation: RAT, LIVER, S-9, AROCLOR 1254, Method: PREINCUBATION) was “inactive; negative”.

In the case of O=C(CO)N(O)c1ccc(Cl)cc1, the mutagenic call [1] is reported as “inactive; negative”, the mutagenic call [2] is reported as “inactive; negative” and the mutagenic call [3] is reported as “inactive; negative”. The mutagenic call [4] was “inactive; negative”.

In the case of O=[N+]([O-])c1ccc2sc3ccccc3c2c1, the mutagenic call (Test System: AMES SALMONELLA TYPHIMURIUM, Strain/Indicator: TA98 (1,8-DNP6), Metabolic Activation: NONE, Method: PREINCUBATION) is reported as “active; positive”, the mutagenic call (Test System: AMES SALMONELLA TYPHIMURIUM, Strain/Indicator: TA98(NR), Metabolic Activation: NONE, Method: PREINCUBATION) is reported as “active; positive” and the mutagenic call (Test System: AMES SALMONELLA TYPHIMURIUM, Strain/Indicator: TA98(NR), Metabolic Activation: RAT LIVER S-9, 3-METHYLCHOLANTHRENE (10%), Method: PREINCUBATION) is reported as “active; positive”. For the same compound, the mutagenic call [5] was “active; positive”.

With CC(=O)Nc1ccc2ccccc2n1 the mutagenic call [5] was “inactive; negative”, the mutagenic call (Test System: AMES SALMONELLA TYPHIMURIUM, Strain/Indicator: TA98, Metabolic Activation: RAT, LIVER, S-9, KANECHLOR 500, Method: PREINCUBATION) was “inactive; negative” and the mutagenic call [6] was “inactive; negative”. For the same compound, the mutagenic call (Test System: AMES SALMONELLA TYPHIMURIUM, Strain/Indicator: TA100, Metabolic Activation: RAT, LIVER, S-9, KANECHLOR 500, Method: PREINCUBATION) was “inactive; negative”.

With Cc1c(Cl)cnc2ccccc12 the mutagenic call (Test System: AMES SALMONELLA TYPHIMURIUM, Strain/Indicator: TA100, Metabolic Activation: RAT, LIVER, S-9, Method: PREINCUBATION) was “inactive; negative”.

CO[C@@H]1C[C@](C)(O)Cc2cc3c(c(O)c21)C(=O)c1c(O)cc2c(c1C3=O)O[C@@H]1O[C@@]2(C)[C@H](O)[C@@H](N(C)C)[C@@H]1O was tested, and the mutagenic call [5] was “inactive; negative”, the mutagenic call (Test System: AMES SALMONELLA TYPHIMURIUM, Strain/Indicator: TA98, Metabolic Activation: RAT LIVER S-9, Method: PREINCUBATION) was “active; positive” and the mutagenic call [6] was “inactive; negative”. For the same compound, the mutagenic call (Test System: AMES SALMONELLA TYPHIMURIUM, Strain/Indicator: TA100, Metabolic Activation: RAT LIVER S-9, Method: PREINCUBATION) was “active; positive”, the mutagenic call [7] was “inactive; negative” and the mutagenic call (Test System: AMES SALMONELLA TYPHIMURIUM, Strain/Indicator: TA1535, Metabolic Activation: RAT LIVER S-9, Method: PREINCUBATION) was “inactive; negative”. For the same compound, the mutagenic call [8] was “inactive; negative”, the mutagenic call (Test System: AMES SALMONELLA TYPHIMURIUM, Strain/Indicator: TA1537, Metabolic Activation: RAT LIVER S-9, Method: PREINCUBATION) was “active; positive” and the mutagenic call (Test System: E.COLI, Strain/Indicator: WP2 UVRA, Metabolic Activation: NONE, Method: PREINCUBATION) was “inactive; negative”. The mutagenic call (Test System: E.COLI, Strain/Indicator: WP2 UVRA, Metabolic Activation: RAT LIVER S-9, Method: PREINCUBATION) was “inactive; negative”.

In the case of C=C1[C@H](O)[C@@]23CC[C@H]4[C@@](C)(CCC[C@@]4(C)C(=O)O)[C@@H]2CC[C@]1(O)C3, the mutagenic call (Test System: AMES SALMONELLA TYPHIMURIUM, Strain/Indicator: TM677, Metabolic Activation: RAT, LIVER, S-9, AROCLOR 1254, Method: PREINCUBATION) is reported as “inactive; negative”.
